Assay results reported in PubChem BioAssay AID743432 (The Scripps Research Institute Molecular Screening Center, 2014).
The source made the active and inactive calls. How the calls were made is not given here.

Target: Sphingosine 1-phosphate receptor 4 (Homo sapiens) (UniProt O95977)
Assay: antagonism at human S1PR4 – cell-based, FRET, dose response, selectivity assay for S1PR3 antagonist project, late-stage follow-up (AID 743432)
Conditions: S1P4 cell line

Sphingosine 1-phosphate receptor 4 (Homo sapiens), sequence (O95977 whole entry, looked up): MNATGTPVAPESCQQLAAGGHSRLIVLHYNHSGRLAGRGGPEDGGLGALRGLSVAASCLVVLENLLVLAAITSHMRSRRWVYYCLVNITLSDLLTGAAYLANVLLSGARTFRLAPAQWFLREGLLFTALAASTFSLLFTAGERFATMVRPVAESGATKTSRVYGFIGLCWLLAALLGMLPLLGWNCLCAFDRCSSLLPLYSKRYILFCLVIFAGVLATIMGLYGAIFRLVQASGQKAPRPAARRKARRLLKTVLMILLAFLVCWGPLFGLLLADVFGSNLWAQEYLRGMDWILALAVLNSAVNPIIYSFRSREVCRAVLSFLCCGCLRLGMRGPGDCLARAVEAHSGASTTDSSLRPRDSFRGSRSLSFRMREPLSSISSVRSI

IC50 | SMILES
> 50 µM (inactive) | O=C(NC(c1nc(-c2ccccc2)no1)C1CCCCC1)c1ccc(Cl)c(Cl)c1 (stereo not given)
> 50 µM (inactive) | O=C(NC(c1ccccc1)c1nc(-c2ccccc2)no1)c1cccc(Br)c1 (stereo not given)
> 50 µM (inactive) | COc1ccc(C(=O)NC(c2ccccc2)c2nc(-c3ccccc3)no2)cc1 (stereo not given)
> 50 µM (inactive) | O=C(NC(c1ccc(Cl)c(Cl)c1)c1nc(-c2ccccc2)no1)c1ccccc1 (stereo not given)
> 50 µM (inactive) | O=C(NC(c1ccccc1)c1nc(-c2ccccc2)no1)c1cccc(Cl)c1 (stereo not given)
> 50 µM (inactive) | O=C(NC(c1cccc(Cl)c1)c1nc(-c2ccccc2)no1)c1cc(Cl)cc(Cl)c1 (stereo not given)
> 50 µM (inactive) | O=C(NC(c1ccc(Cl)cc1)c1nc(-c2ccccc2)no1)c1ccc(Cl)c(Br)c1 (stereo not given)
> 50 µM (inactive) | O=C(NC(c1cccc(Cl)c1)c1nc(-c2ccccc2)no1)c1ccc(Cl)c(Cl)c1 (stereo not given)
> 50 µM (inactive) | CCc1ccc(C(NC(=O)c2cccc(Cl)c2)c2nc(-c3ccccc3)no2)cc1 (stereo not given)
> 50 µM (inactive) | O=C(NC(c1ccc(Cl)cc1)c1nc(-c2ccccn2)no1)c1cccc(Cl)c1 (stereo not given)
inactive | O=C(c1cccc(Cl)c1)N(CCO)C(c1ccc(Cl)c(Cl)c1)c1nc(-c2ccccc2)no1 (stereo not given)
> 50 µM (inactive) | Cc1ccc(C(=O)NC(c2ccccc2)c2nc(-c3ccccc3)no2)cc1 (stereo not given)
> 50 µM (inactive) | O=C(NC(c1ccc(Cl)cc1)c1nc(-c2cccc(Cl)c2)no1)c1cccc(Cl)c1 (stereo not given)
> 50 µM (inactive) | O=C(NC(c1ccc(Cl)c(Cl)c1)c1nc(-c2ccccc2)no1)c1ccc(Cl)c(Cl)c1 (stereo not given)
5.2 µM | O=C(NC(c1cccc(Cl)c1)c1nc(-c2ccccc2)no1)c1cccc(Cl)c1 (stereo not given)
> 50 µM (inactive) | O=C(NC(c1ccc(Br)cc1)c1nc(-c2ccccc2)no1)c1ccc(Cl)c(Cl)c1 (stereo not given)
> 50 µM (inactive) | O=C(NC(c1ccc(Cl)cc1)c1nc(-c2ccccc2)no1)c1ccc(Cl)c(Cl)c1 (stereo not given)
> 50 µM (inactive) | O=C(NC(c1ccccc1)c1nc(-c2ccccc2)no1)c1cccc(Cl)n1 (stereo not given)
3.1 µM | N#Cc1ccc(C(=O)NC(c2ccc(Cl)c(Cl)c2)c2nc(-c3ccccc3)no2)cc1 (stereo not given)
> 50 µM (inactive) | Cc1ccc(C(NC(=O)c2cccc(Cl)c2)c2nc(-c3ccccc3)no2)cc1 (stereo not given)
